Test results: US9695155B2, “Herbicidal substituted pyrimidinyloxy benzene compounds” (E. I. DU PONT DE NEMOURS AND COMPANY, priority 2013, dated 2017)

Legend:
[1] = test system: pigweed; assay: Test C postemergence; type: in vivo, Amaranthus retroflexus; details: for Plant response rating (0 to 100), Pigweed: 125 g ai/ha, postemergence; for Plant response rating, Pigweed: Postemergence, scale 0 to 100 (0 no effect, 100 complete control)
Procedure, shortened: (§1)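 Visual ratings on a 0–100 scale (100 = complete control) were made versus untreated controls after 13–15 greenhouse days. Chemicals in a surfactant-containing non-phytotoxic solvent were applied either preemergence to seeds in loam–sand soil or postemergence to 1- to 4-leaf plants 2–18 cm tall.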

[2] = test system: morningglory; assay: Test C postemergence; type: in vivo, Ipomoea coccinea; details: for Plant response rating (0 to 100), Morningglory: 125 g ai/ha, postemergence; for Plant response rating, Morningglory: Postemergence, scale 0 to 100 (0 no effect, 100 complete control)
Procedure, shortened: as §1

[3] = test system: corn; assay: Test C postemergence; type: in vivo, Zea mays; details: for Corn plant response rating: 16 g ai/ha, visual rating; for Corn plant response rating / Plant response rating (0 to 100), Corn: postemergence; for Corn plant response rating / Plant response rating, Corn: scale 0 to 100 (0 no effect, 100 complete control); for Plant response rating (0 to 100), Corn: 125 g ai/ha; for Plant response rating, Corn: Postemergence
Procedure, shortened: as §1

[4] = test system: Heteranthera limosa; assay: Test B flooded paddy test; type: in vivo; details: Flood, 250 g ai/ha; 0 to 100 scale where 0 is no effect and 100 is complete control
Procedure, shortened: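 Compound added straight to paddy water, with pots kept flooded 3 cm above soil, on plants grown to the 2-leaf stage. Visual scoring 0-100 (100 = complete control) against untreated controls after 13 to 15 greenhouse days.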

[5] = test system: ragweed; assay: Test C preemergence; type: in vivo, Ambrosia elatior; details: for Ragweed plant response rating: preemergence; for Plant response rating, Ragweed: Preemergence, 31 g ai/ha, scale 0 to 100, 0 no effect, 100 complete control
Procedure, shortened: as §1

[6] = test system: giant foxtail; assay: Test A postemergence; type: in vivo, Setaria faberii; details: 0 to 100 scale where 0 is no effect and 100 is complete control
Procedure, shortened: (§2)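 Injury scores run from 0, no effect, to 100, complete control, judged by eye against untreated plants roughly 10 days after treatment. Chemicals carried a surfactant in a non-phytotoxic solvent and went onto loam–sand soil preemergence or onto one- to two-leaf seedlings postemergence.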

[7] = test system: corn; assay: Test A postemergence; type: in vivo, Zea mays
Procedure, shortened: as §2

[8] = test system: Italian ryegrass; assay: Test C preemergence; type: in vivo, Lolium multiflorum; details: for Ryegrass, Italian plant response rating: preemergence; for Plant response rating, Ryegrass, Italian: Preemergence, 31 g ai/ha, scale 0 to 100, 0 no effect, 100 complete control
Procedure, shortened: as §1

[9] = test system: wild oat; assay: Test C postemergence; type: in vivo, Avena fatua; details: for Plant response rating (0 to 100), Oat, Wild: 125 g ai/ha, postemergence; for Plant response rating, Oat, Wild: Postemergence, scale 0 to 100 (0 no effect, 100 complete control)
Procedure, shortened: as §1

[10] = test system: barnyardgrass; assay: Test A preemergence; type: in vivo, Echinochloa crus-galli; details: for Plant response rating, Barnyardgrass: 125 g ai/ha, 0 to 100 scale where 0 is no effect and 100 is complete control; for Barnyardgrass plant response rating: 500 g ai/ha, 0 to 100 scale, 0 no effect, 100 complete control, approx. 10 days
Procedure, shortened: as §2

[11] = test system: oilseed rape; assay: Test C preemergence; type: in vivo, Brassica napus; details: for Oilseed Rape plant response rating: preemergence; for Plant response rating, Oilseed Rape: Preemergence, 31 g ai/ha, scale 0 to 100, 0 no effect, 100 complete control
Procedure, shortened: as §1

[12] = test system: kochia; assay: Test C postemergence; type: in vivo, Kochia scoparia; details: for Kochia plant response rating: 16 g ai/ha, visual rating; for Kochia plant response rating / Plant response rating (0 to 100), Kochia: postemergence; for Kochia plant response rating / Plant response rating, Kochia: scale 0 to 100 (0 no effect, 100 complete control); for Plant response rating (0 to 100), Kochia: 125 g ai/ha; for Plant response rating, Kochia: Postemergence
Procedure, shortened: as §1

[13] = 16 g ai/ha, scale 0 to 100 (0 no effect, 100 complete control)
[14] = 62 g ai/ha, scale 0 (no effect) to 100 (complete control)
[15] = 125 g ai/ha, scale 0 (no effect) to 100 (complete control)
[16] = 125 g ai/ha, 0 to 100 scale where 0 is no effect and 100 is complete control
[17] = 500 g ai/ha, 0 to 100 scale where 0 is no effect and 100 is complete control

## CCOc1cnn(-c2c(C#N)cccc2Oc2ncc(F)cn2)c1 [Compound 89]
[1]
  Plant response rating (0 to 100), Pigweed: 40
[1]; 31 g ai/ha, 13 to 15 days
  Plant response rating, Pigweed: 35
[1]; 62 g ai/ha
  Plant response rating, Pigweed: 35
[2]
  Plant response rating (0 to 100), Morningglory: 85
[2]; 31 g ai/ha, 13 to 15 days
  Plant response rating, Morningglory: 70
[2]; 62 g ai/ha
  Plant response rating, Morningglory: 55
[3]; 13 to 15 days
  Corn plant response rating: 5
[3]
  Plant response rating (0 to 100), Corn: 5
[3]; 31 g ai/ha, 13 to 15 days
  Plant response rating, Corn: 5
[3]; 62 g ai/ha
  Plant response rating, Corn: 5
[4]
  Plant response rating, Ducksalad: 95
[5]; [13]
  Ragweed plant response rating: 40
[5]; [14]
  Ragweed plant response rating: 75
[5]; [15]
  Ragweed plant response rating: 100
[5]
  Plant response rating, Ragweed: 55
[6]; 125 g ai/ha
  Plant response rating, Foxtail, Giant: 80
[6]; 500 g ai/ha
  Plant response rating, Foxtail, Giant: 90
[7]; [16]
  Plant response rating, Corn: 60
[7]; [17]
  Plant response rating, Corn: 90
[8]; [13]
  Ryegrass, Italian plant response rating: 0
[8]; [14]
  Ryegrass, Italian plant response rating: 45
[8]; [15]
  Ryegrass, Italian plant response rating: 50
[8]
  Plant response rating, Ryegrass, Italian: 5
[9]
  Plant response rating (0 to 100), Oat, Wild: 15
[9]; 31 g ai/ha, 13 to 15 days
  Plant response rating, Oat, Wild: 5
[9]; 62 g ai/ha
  Plant response rating, Oat, Wild: 5
[10]
  Plant response rating, Barnyardgrass: 60
  Barnyardgrass plant response rating: 90
[11]; [13]
  Oilseed Rape plant response rating: 80
[11]; [14]
  Oilseed Rape plant response rating: 95
[11]; [15]
  Oilseed Rape plant response rating: 98
[11]
  Plant response rating, Oilseed Rape: 80
[12]; 13 to 15 days
  Kochia plant response rating: 45
[12]
  Plant response rating (0 to 100), Kochia: 50
[12]; 31 g ai/ha, 13 to 15 days
  Plant response rating, Kochia: 50
[12]; 62 g ai/ha
  Plant response rating, Kochia: 60

## FCc1cccc(Oc2ncc(Cl)cn2)c1-n1cc(Br)cn1 [Compound 83]
[1]
  Plant response rating (0 to 100), Pigweed: 85
[1]; 31 g ai/ha, 13 to 15 days
  Plant response rating, Pigweed: 75
[1]; 62 g ai/ha
  Plant response rating, Pigweed: 75
[2]
  Plant response rating (0 to 100), Morningglory: 85
[2]; 31 g ai/ha, 13 to 15 days
  Plant response rating, Morningglory: 65
[2]; 62 g ai/ha
  Plant response rating, Morningglory: 75
[3]; 13 to 15 days
  Corn plant response rating: 0
[3]
  Plant response rating (0 to 100), Corn: 10
[3]; 31 g ai/ha, 13 to 15 days
  Plant response rating, Corn: 5
[3]; 62 g ai/ha
  Plant response rating, Corn: 5
[4]
  Plant response rating, Ducksalad: 45
[5]; [13]
  Ragweed plant response rating: 0
[5]; [14]
  Ragweed plant response rating: 40
[5]; [15]
  Ragweed plant response rating: 45
[5]
  Plant response rating, Ragweed: 35
[6]; 125 g ai/ha
  Plant response rating, Foxtail, Giant: 90
[6]; 500 g ai/ha
  Plant response rating, Foxtail, Giant: 100
[7]; [16]
  Plant response rating, Corn: 40
[7]; 500 g ai/ha, 0 to 100 scale, 0 no effect, 100 complete control
  Plant response rating, Corn: 60
[8]; [13]
  Ryegrass, Italian plant response rating: 0
[8]; [14]
  Ryegrass, Italian plant response rating: 30
[8]; [15]
  Ryegrass, Italian plant response rating: 50
[8]
  Plant response rating, Ryegrass, Italian: 0
[9]
  Plant response rating (0 to 100), Oat, Wild: 5
[9]; 31 g ai/ha, 13 to 15 days
  Plant response rating, Oat, Wild: 0
[9]; 62 g ai/ha
  Plant response rating, Oat, Wild: 10
[10]
  Plant response rating, Barnyardgrass: 60
  Barnyardgrass plant response rating: 90
[11]; [13]
  Oilseed Rape plant response rating: 75
[11]; [14]
  Oilseed Rape plant response rating: 98
[11]; [15]
  Oilseed Rape plant response rating: 100
[11]
  Plant response rating, Oilseed Rape: 95
[12]; 13 to 15 days
  Kochia plant response rating: 60
[12]
  Plant response rating (0 to 100), Kochia: 95
[12]; 31 g ai/ha, 13 to 15 days
  Plant response rating, Kochia: 70
[12]; 62 g ai/ha
  Plant response rating, Kochia: 90

## N#Cc1cccc(Oc2ncc(F)cn2)c1-n1cc(I)cn1 [Compound 86]
[1]
  Plant response rating (0 to 100), Pigweed: 80
[1]; 31 g ai/ha, 13 to 15 days
  Plant response rating, Pigweed: 65
[1]; 62 g ai/ha
  Plant response rating, Pigweed: 65
[2]
  Plant response rating (0 to 100), Morningglory: 85
[2]; 31 g ai/ha, 13 to 15 days
  Plant response rating, Morningglory: 80
[2]; 62 g ai/ha
  Plant response rating, Morningglory: 85
[3]; 13 to 15 days
  Corn plant response rating: 5
[3]
  Plant response rating (0 to 100), Corn: 10
[3]; 31 g ai/ha, 13 to 15 days
  Plant response rating, Corn: 5
[3]; 62 g ai/ha
  Plant response rating, Corn: 5
[4]
  Plant response rating, Ducksalad: 75
[5]; [13]
  Ragweed plant response rating: 5
[5]; [14]
  Ragweed plant response rating: 100
[5]; [15]
  Ragweed plant response rating: 100
[5]
  Plant response rating, Ragweed: 20
[6]; 125 g ai/ha
  Plant response rating, Foxtail, Giant: 90
[6]; 500 g ai/ha
  Plant response rating, Foxtail, Giant: 100
[7]; [16]
  Plant response rating, Corn: 50
[7]; [17]
  Plant response rating, Corn: 100
[8]; [13]
  Ryegrass, Italian plant response rating: 0
[8]; [14]
  Ryegrass, Italian plant response rating: 30
[8]; [15]
  Ryegrass, Italian plant response rating: 35
[8]
  Plant response rating, Ryegrass, Italian: 0
[9]
  Plant response rating (0 to 100), Oat, Wild: 10
[9]; 31 g ai/ha, 13 to 15 days
  Plant response rating, Oat, Wild: 0
[9]; 62 g ai/ha
  Plant response rating, Oat, Wild: 5
[10]
  Plant response rating, Barnyardgrass: 80
  Barnyardgrass plant response rating: 100
[11]; [13]
  Oilseed Rape plant response rating: 25
[11]; [14]
  Oilseed Rape plant response rating: 100
[11]; [15]
  Oilseed Rape plant response rating: 100
[11]
  Plant response rating, Oilseed Rape: 100
[12]; 13 to 15 days
  Kochia plant response rating: 50
[12]
  Plant response rating (0 to 100), Kochia: 95
[12]; 31 g ai/ha, 13 to 15 days
  Plant response rating, Kochia: 60
[12]; 62 g ai/ha
  Plant response rating, Kochia: 90
